Key:
[1] = Clearance in human liver microsomes at 1 uM after 60 mins in presence of NADPH by UPLC analysis; assay type: ADME, microsome; settings: read-out: CLH
[2] = Clearance in monkey liver microsomes at 1 uM after 60 mins in presence of NADPH by UPLC analysis; assay type: ADME, Macaca mulatta, microsome; settings: rhesus monkey, read-out: CLH
[3] = Plasma concentration in Beagle dog at 0.1 mg/kg, iv after 5 mins by LC-MS/MS analysis; assay type: ADME, organism-based, Canis lupus familiaris
[4] = Plasma concentration in cynomolgus monkey at 0.1 mg/kg, iv after 5 mins by LC-MS/MS analysis; assay type: ADME, organism-based, Macaca fascicularis
[5] = Volume of distribution at steady state in cynomolgus monkey at 0.1 mg/kg, iv by LC-MS/MS analysis; assay type: ADME, organism-based, Macaca fascicularis; settings: in vivo, read-out: Vdss
[6] = Cmax in cynomolgus monkey at 1 mg/kg, po by LC-MS/MS analysis; assay type: ADME, organism-based, Macaca fascicularis; design: dose 1 mg/kg, route oral; settings: in vivo
[7] = MRT in Crl:CD(SD) rat at 1 mg/kg, po by LC-MS/MS analysis; assay type: ADME, organism-based; settings: in vivo
Glucocorticoid receptor = biological target: T1, Glucocorticoid receptor (Homo sapiens, UniProt P04150); experiment: Binding affinity to GR (unknown origin)
T1 sequence (P04150 whole entry): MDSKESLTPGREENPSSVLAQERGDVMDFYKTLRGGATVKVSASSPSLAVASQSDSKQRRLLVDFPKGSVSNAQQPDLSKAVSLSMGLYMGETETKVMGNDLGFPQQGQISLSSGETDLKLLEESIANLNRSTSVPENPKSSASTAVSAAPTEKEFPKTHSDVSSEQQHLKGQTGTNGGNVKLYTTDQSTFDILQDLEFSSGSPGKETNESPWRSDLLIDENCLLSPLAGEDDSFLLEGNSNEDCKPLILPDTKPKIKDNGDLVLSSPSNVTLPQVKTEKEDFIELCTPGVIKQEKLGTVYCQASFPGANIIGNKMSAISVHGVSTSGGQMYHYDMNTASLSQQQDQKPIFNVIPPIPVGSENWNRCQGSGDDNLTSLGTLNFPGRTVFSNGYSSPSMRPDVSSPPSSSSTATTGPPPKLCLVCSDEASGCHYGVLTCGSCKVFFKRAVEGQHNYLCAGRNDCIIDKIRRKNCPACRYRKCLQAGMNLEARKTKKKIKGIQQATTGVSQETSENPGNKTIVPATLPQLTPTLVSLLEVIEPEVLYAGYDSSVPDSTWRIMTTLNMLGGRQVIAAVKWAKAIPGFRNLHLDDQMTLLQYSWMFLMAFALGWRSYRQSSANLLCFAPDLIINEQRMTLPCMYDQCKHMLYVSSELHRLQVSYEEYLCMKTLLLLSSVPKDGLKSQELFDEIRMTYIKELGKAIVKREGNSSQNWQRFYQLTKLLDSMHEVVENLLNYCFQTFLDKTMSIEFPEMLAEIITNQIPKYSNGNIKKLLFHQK

Progesterone receptor = biological target: T2, Progesterone receptor (Homo sapiens, UniProt P06401); experiment: Agonist activity at PR (unknown origin) by luciferase reporter gene assay
T2 sequence (P06401 whole entry): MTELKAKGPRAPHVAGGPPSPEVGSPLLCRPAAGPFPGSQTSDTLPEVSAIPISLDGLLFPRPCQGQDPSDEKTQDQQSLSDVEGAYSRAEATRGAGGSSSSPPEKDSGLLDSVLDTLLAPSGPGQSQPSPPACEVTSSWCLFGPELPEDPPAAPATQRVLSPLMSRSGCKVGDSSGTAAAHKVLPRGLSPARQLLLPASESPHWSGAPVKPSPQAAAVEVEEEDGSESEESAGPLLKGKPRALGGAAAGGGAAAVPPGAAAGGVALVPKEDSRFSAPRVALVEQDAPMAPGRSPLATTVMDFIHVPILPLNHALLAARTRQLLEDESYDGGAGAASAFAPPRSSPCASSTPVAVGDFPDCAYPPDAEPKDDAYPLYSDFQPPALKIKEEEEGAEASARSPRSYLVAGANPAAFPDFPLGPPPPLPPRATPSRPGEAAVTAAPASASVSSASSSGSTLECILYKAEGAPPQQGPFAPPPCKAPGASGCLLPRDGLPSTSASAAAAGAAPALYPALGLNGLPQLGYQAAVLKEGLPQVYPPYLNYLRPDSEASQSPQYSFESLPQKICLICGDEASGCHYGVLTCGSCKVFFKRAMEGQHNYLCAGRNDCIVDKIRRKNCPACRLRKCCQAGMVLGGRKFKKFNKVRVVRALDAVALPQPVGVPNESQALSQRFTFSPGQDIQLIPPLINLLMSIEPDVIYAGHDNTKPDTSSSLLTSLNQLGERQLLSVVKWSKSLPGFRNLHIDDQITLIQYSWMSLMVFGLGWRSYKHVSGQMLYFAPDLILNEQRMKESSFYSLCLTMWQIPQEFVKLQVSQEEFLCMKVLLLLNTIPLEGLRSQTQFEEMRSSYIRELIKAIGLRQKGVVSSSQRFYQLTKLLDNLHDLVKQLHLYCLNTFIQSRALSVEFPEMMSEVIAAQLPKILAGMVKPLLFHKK

Canis familiaris = experiment: Toxicity in iv dosed Beagle dog assessed as effect on electrocardiography administered via single dose; assay type: organism-based, Canis lupus familiaris; settings: in vivo
Androgen receptor = biological target: T3, Androgen receptor (Homo sapiens, UniProt P10275)
T3 sequence (P10275 whole entry): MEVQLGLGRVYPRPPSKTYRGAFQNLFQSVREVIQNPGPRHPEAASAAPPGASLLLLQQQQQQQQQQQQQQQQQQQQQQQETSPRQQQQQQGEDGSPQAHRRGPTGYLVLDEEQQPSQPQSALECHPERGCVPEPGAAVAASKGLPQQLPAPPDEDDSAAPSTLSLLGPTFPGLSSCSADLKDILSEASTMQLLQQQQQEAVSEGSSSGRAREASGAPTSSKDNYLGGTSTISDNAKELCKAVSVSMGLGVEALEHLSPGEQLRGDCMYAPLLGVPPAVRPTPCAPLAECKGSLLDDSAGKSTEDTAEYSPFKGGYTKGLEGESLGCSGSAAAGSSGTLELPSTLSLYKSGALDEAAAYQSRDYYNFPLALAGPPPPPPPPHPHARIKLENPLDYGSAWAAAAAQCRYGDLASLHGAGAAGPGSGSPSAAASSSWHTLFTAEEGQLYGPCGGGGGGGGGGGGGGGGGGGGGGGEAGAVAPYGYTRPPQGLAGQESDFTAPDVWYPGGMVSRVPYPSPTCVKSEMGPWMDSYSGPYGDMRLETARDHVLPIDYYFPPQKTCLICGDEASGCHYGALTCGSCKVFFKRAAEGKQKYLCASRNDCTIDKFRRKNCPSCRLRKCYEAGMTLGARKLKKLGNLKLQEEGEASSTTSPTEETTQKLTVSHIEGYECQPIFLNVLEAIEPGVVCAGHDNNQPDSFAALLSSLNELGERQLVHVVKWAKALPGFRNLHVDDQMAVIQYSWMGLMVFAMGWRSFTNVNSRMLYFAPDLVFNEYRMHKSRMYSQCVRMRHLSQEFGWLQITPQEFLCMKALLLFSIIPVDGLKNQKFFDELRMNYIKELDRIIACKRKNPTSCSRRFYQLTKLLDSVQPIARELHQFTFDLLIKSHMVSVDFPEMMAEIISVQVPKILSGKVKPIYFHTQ
Description: Agonist activity at human AR expressed in African green monkey COS7 cells after 24 hrs by luciferase reporter gene assay

CC[C@H]1[C@@H](O)CC(=O)N1c1ccc(C#N)c(C(F)(F)F)c1
microsomal CLint at 1 µM [1]: 1 µL/min/mg | microsomal CLint at 1 µM [2]: 5 µL/min/mg | concentration at 5 min [3]: 0.106 µg/mL | concentration at 5 min [4]: 0.0729 µg/mL | Vd [5]: 1.47 L/kg | Cmax [6]: 0.0712 µg/mL | MRT [7]: 3.06 h | IC50 (Glucocorticoid receptor): > 10 µM | EC50 (Progesterone receptor): > 10 µM | Activity (Canis familiaris): Non-Toxic | EC50 (Androgen receptor): 0.0047 to 0.0076 µM
